Consider two compounds from patent US8980907B2, “Dendrimer conjugates” (The Regents of the University of Michigan, priority 2008, dated 2015).

The subject of one data set is porcine liver esterase. As to the kind of experiment: In vitro release of morphine from pro-drug with porcine liver esterase (HPLC). Type of data set: in vitro ADME. Conditions: 20 μM, porcine liver esterase 0.01 U, phosphate buffer pH 7.0, 2 and 16 hours. As to the method:
[drawing 26] was incubated with porcine liver esterase (Sigma, 0.01 U) in 20 mM phosphate buffer pH 7.0 for 2 and 16 hours. At the end of the time periods the samples were frozen at −20° C. and were thawed prior to loading onto the HPLC column.

The test system of the next data set is Male Hartley guinea pigs. Briefly: Randall & Selitto paw pressure analgesia test in guinea pig. Format: in vivo. The following applies: pain threshold at 60, 150, 240 and 360 min after administration. An excerpt: Male Hartley guinea pigs (375-475 g) from Elm Hill labs were allowed free access to food and water before being used in the testing of analgesia effects free morphine, morphine complex, and morphine prodrug A complex
The Randall & Selitto test apparatus (Harvard Instruments) is used to measure analgesia and is based on determination of the animal threshold response to pain induced in the paw by the application of a uniformly increasing pressure from a conical tip upon the dorsal surface of the rear paw which rests on a platform. The weight in grams is taken upon withdrawal of the animals paw from the platform with five repeated measurements of pain threshold recorded for each time point (control, 60, 150, 240, and 360 min) after drug administration. Values are normalized to control and the mean±SEM for each time point are recorded. To reduce tissue damage to the animal a weight limit is used for all animals.

Another data set deals with solid tumors. Conditions: cited from earlier work.

On to `CN1CC[C@]23c4c5ccc(OC(=O)CCC(=O)OC(C)(C)C)c4O[C@H]2[C@@H](O)C=C[C@H]3[C@H]1C5` [Pro-drug A], for which the “release of morphine from pro-drug” value in the data set with porcine liver esterase is listed as “sustained release of morphine”. The “analgesia / release of morphine in vivo” value with Male Hartley guinea pigs was “sustained release of morphine”.

Consider `N.N.[Cl][Pt][Cl]` [cisplatin], for which the “in vivo activity in solid tumor models” value with solid tumors was “no effect”.
